Source: US10940139B2, “Compounds that interact with the Ras superfamily for the treatment of cancers, inflammatory diseases, rasopathies, and fibrotic disease” (Shy Therapeutics LLC, priority 2017, dated 2021)

Legend:
[1] = system: TNFα production in RAW 264.7 macrophage cell line; experiment: Mouse TNF alpha quantification assay (LPS-stimulated macrophages, ELISA); type: cell-based; details: RAW264.7, RAW 264.7 murine leukemia virus transformed macrophage cell lines, LPS stimulation, read-out: TNF-α % Inhibition at 30 μM
[2] = system: IL6 production in RAW 264.7 macrophage cell line; experiment: Mouse IL6 quantification assay (LPS-stimulated macrophages, ELISA); type: cell-based; details: RAW264.7, RAW 264.7 murine leukemia virus transformed macrophage cell lines, LPS stimulation, read-out: IL-6 % Inhibition at 30 μM

Compound | inhibition at 30 µM [1] [%] | inhibition at 30 µM [2] [%]
N#Cc1ncn(-c2nc(-c3ccccn3)nc3sc(-c4ccccc4)cc23)n1 [drawing 2132] | 76 to 100 | 76 to 100
Cc1nnc(C(Nc2nc(-c3ccccn3)nc3scc(-c4ccccc4)c23)c2ccccc2)n1C (stereo not shown) [drawing 2133] | 76 to 100 | 76 to 100
Cc1sc2nc(-c3ccccn3)nc(NCCc3nccn3C)c2c1-c1ccccc1 [drawing 2134] | 0 | 1 to 25
CCCNC(=O)CN1CCN(c2nc(-c3ccccn3)nc3sc(-c4ccccc4)cc23)CC1 [drawing 2135] | 76 to 100 | 76 to 100
CC(Nc1nc(-c2ccccn2)nc2scc(-c3ccccc3)c12)c1nncn1C (stereo not shown) [drawing 2138] | 1 to 25 | 1 to 25
c1ccc(-c2csc3nc(-c4ccccn4)nc(N4CCN(Cc5cccnc5)CC4)c23)cc1 [drawing 2139] | 51 to 75 | 76 to 100
c1ccc(-c2csc3nc(-c4ccccn4)nc(N4CCN(CC5CCCO5)CC4)c23)cc1 (stereo not shown) [drawing 2140] | 26 to 50 | 51 to 75
CN(Cc1cnn(C)c1)c1nc(-c2ccccn2)nc2scc(-c3ccccc3)c12 [drawing 2141] | 26 to 50 | 76 to 100
CN(CCCc1n[nH]c(N)c1C#N)c1nc(-c2ccccn2)nc2sc(-c3ccccc3)cc12 [drawing 2142] | 51 to 75 | 76 to 100
O=C(CN1CCN(c2nc(-c3ccccn3)nc3sc(-c4ccccc4)cc23)CC1)N1CCCC1 [drawing 2143] | 76 to 100 | 76 to 100
CNC(=O)CN1CCN(c2nc(-c3ccccn3)nc3scc(-c4ccccc4)c23)CC1 [drawing 2144] | 1 to 25 | 1 to 25
O=S1(=O)CCC(N2CCN(c3nc(-c4ccccn4)nc4scc(-c5ccccc5)c34)CC2)C1 (stereo not shown) [drawing 2145] | 1 to 25 | 1 to 25
CON(C)c1nc(-c2ccccn2)nc2scc(-c3ccccc3)c12 [drawing 2147] | 1 to 25 | 26 to 50
O=C(CN1CCN(c2nc(-c3ccccn3)nc3scc(-c4ccccc4)c23)CC1)N1CCCCC1 [drawing 2148] | 1 to 25 | 26 to 50
O=C(CNc1nc(-c2ccccn2)nc2scc(-c3ccccc3)c12)NC1CC1 [drawing 2149] | 26 to 50 | 26 to 50
CCN(CC)C(=O)CN1CCN(c2nc(-c3ccccn3)nc3scc(-c4ccccc4)c23)CC1 [drawing 2150] | 51 to 75 | 76 to 100
CC(C)CNC(=O)CN1CCN(c2nc(-c3ccccn3)nc3scc(-c4ccccc4)c23)CC1 [drawing 2151] | 26 to 50 | 76 to 100
O=S1(=O)CCC(Nc2nc(-c3ccccn3)nc3scc(-c4ccccc4)c23)C1 (stereo not shown) [drawing 2152] | 0 | 1 to 25
c1ccc(-c2csc3nc(-c4ccccn4)nc(N4CCN(CCN5CCCC5)CC4)c23)cc1 [drawing 2153] | 0 | 26 to 50
OC1CCCN(c2nc(-c3ccccn3)nc3scc(-c4ccccc4)c23)C1 (stereo not shown) [drawing 2154] | 1 to 25 | 26 to 50
c1ccc(-c2csc3nc(-c4ccccn4)nc(N4CCOCC4)c23)cc1 [drawing 2155] | 1 to 25 | 1 to 25

Compound | inhibition at 30 µM [1] [%] | inhibition at 30 µM [2] [%]
OC1CCN(c2nc(-c3ccccn3)nc3scc(-c4ccccc4)c23)CC1 [drawing 2156] | 1 to 25 | 26 to 50
O=C(CN1CCN(c2nc(-c3ccccn3)nc3scc(-c4ccccc4)c23)CC1)N1CCCC1 [drawing 2157] | 1 to 25 | 1 to 25
O=C(CN1CCN(c2nc(-c3ccccn3)nc3scc(-c4ccccc4)c23)CC1)NC1CC1 [drawing 2158] | 26 to 50 | 76 to 100
c1ccc(-c2csc3nc(-c4ccccn4)nc(NN4CCOCC4)c23)cc1 [drawing 2159] | 26 to 50 | 51 to 75
NC(=O)C1CCCN(c2nc(-c3ccccn3)nc3scc(-c4ccccc4)c23)C1 (stereo not shown) [drawing 2160] | 1 to 25 | 1 to 25
COCCNc1nc(-c2ccccn2)nc2scc(-c3ccccc3)c12 [drawing 2161] | 76 to 100 | 76 to 100
CC(=O)N1CCN(c2nc(-c3ccccn3)nc3scc(-c4ccccc4)c23)CC1 [drawing 2162] | 26 to 50 | 26 to 50
O=C1CCN(c2nc(-c3ccccn3)nc3scc(-c4ccccc4)c23)CC1 [drawing 2163] | 1 to 25 | 1 to 25
NC(=O)C1CCN(c2nc(-c3ccccn3)nc3scc(-c4ccccc4)c23)CC1 [drawing 2164] | 1 to 25 | 1 to 25
Cc1sc2nc(N)nc(O)c2c1C [drawing 2165] | 1 to 25 | 1 to 25
COc1ccnc(-c2nc(O)c3ccsc3n2)c1 [drawing 2166] | 1 to 25 | 1 to 25
COc1cccc(N2CCN(C(=O)c3csc4c(O)nc(-c5ccccn5)nc34)CC2)c1 [drawing 2167] | 0 | 26 to 50
Cc1ccccc1N1CCN(C(=O)c2csc3c(O)nc(-c4ccccn4)nc23)CC1 [drawing 2168] | 1 to 25 | 51 to 75
O=C(c1csc2c(O)nc(-c3ccccn3)nc12)N1CCN(Cc2cccc(O)c2)CC1 [drawing 2169] | 1 to 25 | 26 to 50
O=C(c1csc2c(O)nc(-c3ccccn3)nc12)N1CCOC(c2cccc(F)c2)C1 (stereo not shown) [drawing 2170] | 1 to 25 | 26 to 50
O=C(c1csc2c(O)nc(-c3ccccn3)nc12)N1CCOC(c2nccs2)C1 (stereo not shown) [drawing 2171] | 1 to 25 | 51 to 75
COc1ccnc(-c2nc(O)c3c(Br)csc3n2)c1 [drawing 2172] | 26 to 50 | 76 to 100
COc1ccc(CCN(C)C(=O)c2csc3nc(-c4ccccn4)nc(N4CCOCC4)c23)cn1 [drawing 2173] | 0 | 26 to 50
COc1ncc(CCNC(=O)c2csc3nc(-c4ccccn4)nc(N4CCOCC4)c23)cn1 [drawing 2175] | 0 | 1 to 25
O=C(NCCc1cncs1)c1csc2nc(-c3ccccn3)nc(N3CCOCC3)c12 [drawing 2176] | 0 | 1 to 25
CC(C)(C(=O)Nc1ccnc(-c2ccccn2)n1)c1ccc(C#N)cc1 [drawing 2177] | 0 | 1 to 25

Compound | inhibition at 30 µM [1] [%] | inhibition at 30 µM [2] [%]
CC(C)(C(=O)Nc1nc(-c2ccccn2)nc2sccc12)c1ccc(C#N)cc1 [drawing 2178] | 1 to 25 | 76 to 100
O=C(c1csc2c(O)nc(-c3ccccn3)nc12)N1CCN(c2cccc(F)c2)CC1 [drawing 2179] | 0 | 76 to 100
O=C(c1csc2c(O)nc(-c3ccccn3)nc12)N1CCN(c2ccc(F)cc2)CC1 [drawing 2180] | 0 | 26 to 50
N#Cc1cccc(N2CCN(C(=O)c3csc4c(O)nc(-c5ccccn5)nc34)CC2)c1 [drawing 2181] | 0 | 51 to 75
N#Cc1ccc(N2CCN(C(=O)c3csc4c(O)nc(-c5ccccn5)nc34)CC2)cc1 [drawing 2182] | 0 | 26 to 50
COc1cc(OC)cc(N2CCN(C(=O)c3csc4c(O)nc(-c5ccccn5)nc34)CC2)c1 [drawing 2183] | 1 to 25 | 26 to 50
COc1ccc(N2CCN(C(=O)c3csc4c(O)nc(-c5ccccn5)nc34)CC2)c(OC)c1 [drawing 2184] | 0 | 76 to 100
O=C(c1csc2c(O)nc(-c3ccccn3)nc12)N1CCN(c2ccc(F)cc2F)CC1 [drawing 2185] | 0 | 76 to 100
CC1CN(c2ccccc2)CCN1C(=O)c1csc2c(O)nc(-c3ccccn3)nc12 (stereo not shown) [drawing 2186] | 26 to 50 | 76 to 100
O=C(c1csc2c(O)nc(-c3ccccn3)nc12)N1CCN(Cc2ccccc2)CC1 [drawing 2187] | 0 | 76 to 100
COc1cccc(CN2CCN(C(=O)c3csc4c(O)nc(-c5ccccn5)nc34)CC2)c1 [drawing 2188] | 0 | 51 to 75
O=C(c1csc2c(O)nc(-c3ccccn3)nc12)N1CCN(Cc2ccc(O)cc2)CC1 [drawing 2189] | 1 to 25 | 1 to 25
O=C(c1csc2c(O)nc(-c3ccccn3)nc12)N1CCN(Cc2ccc(O)c(Cl)c2)CC1 [drawing 2190] | 1 to 25 | 76 to 100
O=C(c1csc2c(O)nc(-c3ccccn3)nc12)N1CCOC(c2ccccc2)C1 (stereo not shown) [drawing 2191] | 0 | 51 to 75
COc1ccccc1C1CN(C(=O)c2csc3c(O)nc(-c4ccccn4)nc23)CCO1 (stereo not shown) [drawing 2192] | 51 to 75 | 76 to 100
COc1ccc(C2CN(C(=O)c3csc4c(O)nc(-c5ccccn5)nc34)CCO2)cc1 (stereo not shown) [drawing 2193] | 1 to 25 | 76 to 100
O=C(c1csc2c(O)nc(-c3ccccn3)nc12)N1CCOC(c2ccccc2Cl)C1 (stereo not shown) [drawing 2194] | 1 to 25 | 76 to 100
O=C(c1csc2c(O)nc(-c3ccccn3)nc12)N1CCOC(Cc2ccccc2)C1 (stereo not shown) [drawing 2195] | 0 | 76 to 100
COc1ccccc1C1CN(C(=O)c2csc3c(O)nc(-c4ccccn4)nc23)CCN1 (stereo not shown) [drawing 2196] | 0 | 26 to 50
COc1cccc(C2CN(C(=O)c3csc4c(O)nc(-c5ccccn5)nc34)CCN2)c1 (stereo not shown) [drawing 2197] | 1 to 25 | 76 to 100
